For assay [1], the target named is T1, human mAChRM1 (Homo sapiens, UniProt P11229).
T1 construct: host or cells: CHO-K1
T1 sequence (P11229 1-460): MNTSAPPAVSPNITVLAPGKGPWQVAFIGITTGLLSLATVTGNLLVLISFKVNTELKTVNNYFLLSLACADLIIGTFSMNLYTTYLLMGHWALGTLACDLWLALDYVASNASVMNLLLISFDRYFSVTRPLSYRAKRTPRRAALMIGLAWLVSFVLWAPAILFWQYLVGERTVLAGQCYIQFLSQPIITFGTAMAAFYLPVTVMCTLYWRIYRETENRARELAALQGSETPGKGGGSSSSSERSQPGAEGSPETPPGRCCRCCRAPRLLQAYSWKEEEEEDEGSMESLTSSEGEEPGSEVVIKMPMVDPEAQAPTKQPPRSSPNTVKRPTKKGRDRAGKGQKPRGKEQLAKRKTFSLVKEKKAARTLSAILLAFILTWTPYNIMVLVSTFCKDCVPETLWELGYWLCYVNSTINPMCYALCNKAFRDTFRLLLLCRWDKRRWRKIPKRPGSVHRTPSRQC
Briefly: mAChR M1 cell-based functional assay (calcium mobilization), positive allosteric modulator activity: increase in the EC20 acetylcholine response. Conditions: for Emax: PAM mode; for EC50: increase in the EC20 acetylcholine response, read-out: PAM Activity Human M1 EC50; call rule not given here. The method, boiled down:
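Potentiation is scored as the rise in an EC20 acetylcholine-evoked calcium signal across 11-point (1:3) compound series, fitted with a four-parameter logistic equation to give EC50 and Emax. Read-out is Fluo-4 fluorescence ratio in hM1-transfected CHO-K1 cells, measured kinetically on FDSS.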
In general terms: Calcium assays in cells follow changes in intracellular calcium, usually with a dye or a luminescent sensor.

The target of assay [2] is T1, human mAChRM1. Nature of the assay: mAChR M1 cell-based functional assay (calcium mobilization), agonist activity upon compound addition, Emax relative to acetylcholine maximum. The following applies: for Agonist Activity Human M1 EC50 / EC50: calcium mobilization upon compound addition; for Emax: relative to the maximum for acetylcholine. The essentials: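 Emax is given as a percentage of the maximal acetylcholine response, from four-parameter curves of compound-evoked calcium mobilization. Human M1-transfected CHO-K1 cells carried Fluo-4 dye, and compound (11 concentrations, 1:3 steps) was applied at 4 s of a 300 s kinetic fluorescence recording.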

Regarding `Cn1cc(-c2ccc(CN3Cc4ncccc4C3=O)cc2)c(C(C)(C)O)n1` [Compound 32, 6-(4-(3-(2-hydroxypropan-2-yl)-1-methyl-1H-pyrazol-4-yl)benzyl)-6,7-dihydro-5H-pyrrolo[3,4-b]pyridin-5-one], at human mAChRM1 [1], the maximal response (Emax) stood at 48% and the EC50 was at least 10000 nM. The “Agonist Activity Human M1 EC50” value on human mAChRM1 [2] is “inactive”.

For the compound `Cn1cc2c(-c3cc(F)c(CN4Cc5cccc(F)c5C4=O)c(F)c3)ccc(C(C)(C)O)c2n1` [Compound 154, 2-(2,6-difluoro-4-(7-(2-hydroxypropan-2-yl)-2-methyl-2H-indazol-4-yl)benzyl)-7-fluoroisoindolin-1-one], at human mAChRM1 [1], the Emax was found to be 87% and the EC50 amounted to 64 nM. Further, the “Agonist Activity Human M1 EC50” value at human mAChRM1 [2] is “inactive”.

`CC(C)(O)c1ccc(-c2cc(Cl)c(CN3Cc4ncccc4C3=O)c(Cl)c2)cc1` [Compound 46, 6-((3,5-dichloro-4′-(2-hydroxypropan-2-yl)-[1,1′-biphenyl]-4-yl)methyl)-6,7-dihydro-5H-pyrrolo[3,4-b]pyridin-5-one]: on human mAChRM1 [1], the maximal effect (Emax) came to 65% and the EC50 was 1440 nM. Moreover, the “Agonist Activity Human M1 EC50” value at human mAChRM1 [2] is “inactive”.

In the case of `Cn1cc2c(-c3cc(F)c(CN4Cc5cccnc5C4=O)c(C4CC4)c3)ccc(C(C)(C)O)c2n1` [Compound 133, 6-(2-cyclopropyl-6-fluoro-4-(7-(2-hydroxypropan-2-yl)-2-methyl-2H-indazol-4-yl)benzyl)-5,6-dihydro-7H-pyrrolo[3,4-b]pyridin-7-one], on human mAChRM1 [1], the Emax was determined as 79% and the EC50 was determined as 61 nM. On human mAChRM1 [2], the EC50 came out at 4420 nM and the Emax was 72%.

For the compound `CC(C)(O)c1cc(-c2cc(F)c(CN3Cc4ncccc4C3=O)c(F)c2)c2[nH]nnc2c1` [Compound 83, 6-(2,6-difluoro-4-(5-(2-hydroxypropan-2-yl)-1H-benzo[d][1,2,3]triazol-7-yl)benzyl)-6,7-dihydro-5H-pyrrolo[3,4-b]pyridin-5-one], on human mAChRM1 [1], the Emax came out at 39% and the 50% effective concentration (EC50) was at least 10000 nM. Also, on human mAChRM1 [2], the “Agonist Activity Human M1 EC50” value was “inactive”.

As for `Cn1cc2cc(-c3cc(F)c(CN4Cc5cccc(F)c5C4=O)c(Cl)c3)cc(C(C)(C)O)c2n1` [Compound 171, 2-(2-chloro-6-fluoro-4-(7-(2-hydroxypropan-2-yl)-2-methyl-2H-indazol-5-yl)benzyl)-7-fluoroisoindolin-1-one], on human mAChRM1 [1], the Emax is 75% and the EC50 is at least 10000 nM. Also, at human mAChRM1 [2], the “Agonist Activity Human M1 EC50” value was “inactive”.

For `Cn1cc2c(-c3cc(F)c(CN4Cc5ncccc5C4=O)c(F)c3)ccc(C3(O)CCOC3)c2n1` (stereo not shown) [Compound 90, 6-(2,6-difluoro-4-(7-(3-hydroxytetrahydrofuran-3-yl)-2-methyl-2H-indazol-4-yl)benzyl)-6,7-dihydro-5H-pyrrolo[3,4-b]pyridin-5-one], on human mAChRM1 [1], the Emax amounted to 83% and the EC50 stood at 116 nM. In addition, on human mAChRM1 [2], the EC50 came out at 2460 nM and the Emax worked out at 20%.

For `Cn1cc2c(-c3cc(F)c(CN4Cc5ncccc5C4=O)c(F)c3)ccc(C(C)(O)CS(C)(=O)=O)c2n1` (stereo not shown) [Compound 97, 6-(2,6-difluoro-4-(7-(2-hydroxy-1-(methylsulfonyl)propan-2-yl)-2-methyl-2H-indazol-4-yl)benzyl)-6,7-dihydro-5H-pyrrolo[3,4-b]pyridin-5-one], at human mAChRM1 [1], the Emax was found to be 87% and the EC50 worked out at 872 nM. For the same compound, the “Agonist Activity Human M1 EC50” value at human mAChRM1 [2] was “inactive”.

In the case of `[2H]C1([2H])c2ncccc2C(=O)N1Cc1c(F)cc(-c2ccc(C(C)(C)O)c3nn(C)cc23)cc1C1CCCC1` [Compound 152, 6-(2-cyclopentyl-6-fluoro-4-(7-(2-hydroxypropan-2-yl)-2-methyl-2H-indazol-4-yl)benzyl)-6,7-dihydro-5H-pyrrolo[3,4-b]pyridin-5-one-7,7-d2], at human mAChRM1 [1], the Emax came to 74% and the EC50 amounted to 3360 nM. In addition, the “Agonist Activity Human M1 EC50” value on human mAChRM1 [2] is “inactive”.

Regarding `Cn1cc2c(-c3cc(F)c(CN4Cc5cccnc5C4=O)c(Cl)c3)ccc(C(C)(C)O)c2n1` [Compound 122, 6-(2-Chloro-6-fluoro-4-(7-(2-hydroxypropan-2-yl)-2-methyl-2H-indazol-4-yl)benzyl)-5,6-dihydro-7H-pyrrolo[3,4-b]pyridin-7-one], the Emax on human mAChRM1 [1] was determined as 86%; on human mAChRM1 [2] it was 20%. The EC50 at human mAChRM1 [1] was 231 nM; at human mAChRM1 [2], at least 10000 nM.

Consider `Cc1cc(-c2ccc(C(C)(C)O)cc2)ccc1CN1Cc2cccnc2C1=O` [Compound 129, 6-((4′-(2-hydroxypropan-2-yl)-3-methyl-[1,1′-biphenyl]-4-yl)methyl)-5,6-dihydro-7H-pyrrolo[3,4-b]pyridin-7-one], for which, on human mAChRM1 [1], the Emax was found to be 65% and the concentration giving a half-maximal response (EC50) is at least 10000 nM. Also, the “Agonist Activity Human M1 EC50” value on human mAChRM1 [2] was “inactive”.

Take `Cn1cc2c(-c3cnc(CN4Cc5cccnc5C4=O)c(F)c3)ccc(C(C)(C)O)c2n1` [Compound 124, 6-((3-fluoro-5-(7-(2-hydroxypropan-2-yl)-2-methyl-2H-indazol-4-yl)pyridin-2-yl)methyl)-5,6-dihydro-7H-pyrrolo[3,4-b]pyridin-7-one]: on human mAChRM1 [1], the Emax was found to be 84% and the EC50 was 1870 nM. Also, the “Agonist Activity Human M1 EC50” value at human mAChRM1 [2] was “inactive”.

Consider `COc1cc(-c2ccc(C(C)(C)O)c3nn(C)cc23)cc(F)c1CN1Cc2cccnc2C1=O` [Compound 116, 6-(2-fluoro-4-(7-(2-hydroxypropan-2-yl)-2-methyl-2H-indazol-4-yl)-6-methoxybenzyl)-5,6-dihydro-7H-pyrrolo[3,4-b]pyridin-7-one], for which the figures for the Emax on human mAChRM1 [1] and on human mAChRM1 [2] were 88% and 17%, respectively. Moreover, the EC50 was 233 nM on human mAChRM1 [1] and at least 10000 nM on human mAChRM1 [2].

For the compound `Cc1cc(-c2cc3c(c(C(C)(C)O)c2)OCO3)cc(F)c1CN1Cc2ncccc2C1=O` [Compound 18, 6-(2-fluoro-4-(7-(2-hydroxypropan-2-yl)benzo[d][1,3]dioxol-5-yl)-6-methylbenzyl)-6,7-dihydro-5H-pyrrolo[3,4-b]pyridin-5-one], on human mAChRM1 [1], the Emax worked out at 49% and the EC50 turned out to be 6370 nM. Further, on human mAChRM1 [2], the “Agonist Activity Human M1 EC50” value was “inactive”.

Take `Cc1cc(-c2cc(C(C)(C)O)cc3nn(C)cc23)ccc1CN1Cc2ncccc2C1=O` [Compound 27, 6-(4-(6-(2-hydroxypropan-2-yl)-2-methyl-2H-indazol-4-yl)-2-methylbenzyl)-6,7-dihydro-5H-pyrrolo[3,4-b]pyridin-5-one]: on human mAChRM1 [1], the Emax is 83% and the EC50 was determined as 3280 nM. In addition, at human mAChRM1 [2], the “Agonist Activity Human M1 EC50” value was “inactive”.

Regarding `CCC(O)(CC)c1ccc(-c2cc(C)c(CN3Cc4ncccc4C3=O)c(F)c2)c2cn(C)nc12` [Compound 55, 6-(2-fluoro-4-(7-(3-hydroxypentan-3-yl)-2-methyl-2H-indazol-4-yl)-6-methylbenzyl)-6,7-dihydro-5H-pyrrolo[3,4-b]pyridin-5-one], on human mAChRM1 [1], the Emax was 67% and the EC50 was determined as 2720 nM. In addition, at human mAChRM1 [2], the “Agonist Activity Human M1 EC50” value was “inactive”.

As for `Cn1cc2c(-c3ccc(CN4Cc5cccc(F)c5C4=O)c(F)c3)ccc(C(C)(C)O)c2n1` [Compound 160, 7-fluoro-2-(2-fluoro-4-(7-(2-hydroxypropan-2-yl)-2-methyl-2H-indazol-4-yl)benzyl)isoindolin-1-one], at human mAChRM1 [1], the Emax is 80% and the EC50 was 296 nM. In addition, the “Agonist Activity Human M1 EC50” value at human mAChRM1 [2] is “inactive”.

For `CC(C)(O)c1ccc(-c2cc(F)c(CN3Cc4nccnc4C3=O)c(F)c2)cc1` [Compound 137, 6-((3,5-difluoro-4′-(2-hydroxypropan-2-yl)-[1,1′-biphenyl]-4-yl)methyl)-6,7-dihydro-5H-pyrrolo[3,4-b]pyrazin-5-one], on human mAChRM1 [1], the Emax worked out at 60% and the EC50 is 5040 nM. In addition, on human mAChRM1 [2], the “Agonist Activity Human M1 EC50” value was “inactive”.

For the compound `COc1cc(-c2ccc(C(C)(C)O)cc2)cc(F)c1CN1Cc2cccnc2C1=O` [Compound 119, 6-((3-fluoro-4′-(2-hydroxypropan-2-yl)-5-methoxy-[1,1′-biphenyl]-4-yl)methyl)-5,6-dihydro-7H-pyrrolo[3,4-b]pyridin-7-one], at human mAChRM1 [1], the Emax is 58% and the EC50 was at least 10000 nM. Further, the “Agonist Activity Human M1 EC50” value at human mAChRM1 [2] is “inactive”.

Turning to `CN(C)c1cc(-c2ccc(C(C)(C)O)c3nn(C)cc23)cc(F)c1CN1Cc2ncccc2C1=O` [Compound 77, 6-(2-(dimethylamino)-6-fluoro-4-(7-(2-hydroxypropan-2-yl)-2-methyl-2H-indazol-4-yl)benzyl)-6,7-dihydro-5H-pyrrolo[3,4-b]pyridin-5-one], at human mAChRM1 [1], the maximal response (Emax) is 73% and the EC50 was found to be 3870 nM. Moreover, at human mAChRM1 [2], the “Agonist Activity Human M1 EC50” value is “inactive”.

A word on the Emax: it is the greatest response seen or fitted, relative to the assay's reference. A word on the EC50: it is the concentration at which the effect is half-maximal.

Values taken from patent US20260138978A1, “POSITIVE ALLOSTERIC MODULATORS OF THE MUSCARINIC ACETYLCHOLINE RECEPTOR M1” (Vanderbilt University, priority 2022, published 2026).
